According to the supplement of paper PMC10627819:

How the values were obtained:
[1] = system: B. subtilis 168; assay: fitness (endpoint OD595 vs no drug) (fraction); higher = more growth
Outline: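 Bacterial fitness was scored as optical density at the stationary-phase transition relative to the robust mean of no-drug control wells. Scores are capped at 1. The growth data were OD595 readings every 30 min for 14 h at 37 °C, background-subtracted against the first reading, from 384-well plates inoculated at OD595 0.01 in TSB, LB Lennox or CY.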

[2] = system: B. subtilis 168; assay: Bliss interaction score (quartile over a dose matrix) (fitness difference); higher = more antagonism (negative = synergy)
Outline: (§1)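 Growth was read as OD595 when cultures entered stationary phase, and each value was divided by the plate's robust no-drug mean and capped at 1. This normalised ratio is the fitness value, and fitness for each single drug came from the combination data. The Bliss score subtracts the expected fitness, taken as the product, from the observed fitness and is given as quartiles across technical, biological and donor/recipient replicates.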

[3] = system: S. aureus DSM 20231; assay: as above
Outline: as §1

[4] = system: S. aureus Newman; assay: as above
Outline: as §1

[5] = system: S. pneumoniae D39V; assay: as above
Outline: as §1
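Wherever Bliss interaction score (quartile over a dose matrix) is given: first quartile when negative (synergy) and third quartile when positive (antagonism).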
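Wherever fitness (endpoint OD595 vs no drug) is given: OD595 on entry to stationary phase over no-drug wells; at most 1.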

CO[C@@H]1[C@@H](OC(N)=O)[C@@H](O)[C@H](Oc2ccc3c(O)c(NC(=O)c4ccc(O)c(CC=C(C)C)c4)c(=O)oc3c2C)OC1(C)C [Novobiocin] + COc1ccc(C[C@H](N)C(=O)N[C@H]2[C@@H](O)[C@H](n3cnc4c(N(C)C)ncnc43)O[C@@H]2CO)cc1 [Puromycin]
fitness, [1]
Settings	first compound 0.0125 µg/mL	first compound 0.025 µg/mL	first compound 0.05 µg/mL
partner 0.39 µg/mL	0.948	0.948	0.973
partner 0.78 µg/mL	0.954	0.964	0.938
partner 1.56 µg/mL	0.956	0.907	0.971

fitness, [1], one replicate
Settings	first compound 0.125 µg/mL	first compound 0.25 µg/mL	first compound 0.5 µg/mL
partner 0.39 µg/mL	0.89	0.819	0.554
partner 0.78 µg/mL	0.962	0.953	0.655
partner 1.56 µg/mL	0.905	0.853	0.544

Settings	Bliss interaction score
[2]	0.0583
[3]	-0.0356
[4]	-0.0461
[5]	0.105

CO[C@@H]1[C@@H](OC(N)=O)[C@@H](O)[C@H](Oc2ccc3c(O)c(NC(=O)c4ccc(O)c(CC=C(C)C)c4)c(=O)oc3c2C)OC1(C)C [Novobiocin] + C[n+]1ccc(-c2cc[n+](C)cc2)cc1 [Paraquat]
fitness, [1]
Settings	first compound 0.0125 µg/mL	first compound 0.025 µg/mL	first compound 0.05 µg/mL
partner 1.25 µg/mL	0.937	0.942	0.976
partner 2.5 µg/mL	0.939	0.956	0.999
partner 5 µg/mL	0.855	0.832	0.912

fitness, [1], one replicate
Settings	first compound 0.125 µg/mL	first compound 0.25 µg/mL	first compound 0.5 µg/mL
partner 1.25 µg/mL	0.908	≥ 1	0.664
partner 2.5 µg/mL	0.951	0.878	0.517
partner 5 µg/mL	0.836	0.819	0.452

Settings	Bliss interaction score
[2]	0.0704
[3]	0.0456
[4]	0.0868
[5]	0.0614

CO[C@@H]1[C@@H](OC(N)=O)[C@@H](O)[C@H](Oc2ccc3c(O)c(NC(=O)c4ccc(O)c(CC=C(C)C)c4)c(=O)oc3c2C)OC1(C)C [Novobiocin] + Cc1cc(NS(=O)(=O)c2ccc(N)cc2)no1 [Sulfamethoxazol]
fitness, [1]
Settings	first compound 0.0125 µg/mL	first compound 0.025 µg/mL	first compound 0.05 µg/mL
partner 1 µg/mL	0.932	0.959	0.951
partner 2 µg/mL	0.968	0.955	0.876
partner 4 µg/mL	0.966	0.989	0.92

fitness, [1], one replicate
Settings	first compound 0.05 µg/mL	first compound 0.1 µg/mL	first compound 0.125 µg/mL	first compound 0.2 µg/mL	first compound 0.25 µg/mL	first compound 0.5 µg/mL
partner 0.5 µg/mL	0.972	≥ 1	–	≥ 1	–	–
partner 1 µg/mL	–	0.864	0.999	0.81	0.897	0.49
partner 2 µg/mL	–	0.814	0.927	0.885	0.838	0.507
partner 4 µg/mL	–	–	≥ 1	–	0.909	0.482

Settings	Bliss interaction score
[2]	0.0447
[3]	0.0483
[4]	0.041
[5]	-0.0959
